Results on 14 compounds are retold here after patent US10131661B2, “High-solubility acetone-added pyrroloquinoline quinone salt” (Mitsubishi Gas Chemical Company, Inc., priority 2015, dated 2018).

Converted amounts (≈) assume the structure as drawn.

The term solubility denotes how much of the substance goes into solution per volume. Low readings indicate little dissolved substance, high ones much dissolved substance.

Data set [1] in a line: Storage stability in a solid state, visual check after 1 month. The class given is physicochemical. As for the experimental part:
The HOP alkali metal salt fabricated in each Example was subjected to cold storage (4° C.) and room-temperature storage (23° C.) in a solid state, and changes after a lapse of 1 month were visually checked.

The test system of data set [2] is Human uterine cancer cells, HeLa cells. The data set is described as follows: Cell activity test (cell number by Cell Counting Kit 8). The class given is cell-based. To be noted: 2 days. As for the experimental part: Human uterine cancer cells, HeLa cells, were scattered on 96 wells so as to be 1,000 cells/well, and were cultivated in a DMEM (Invitrogen Corp.)+10% FBS culture medium under the condition of a 5% CO2 concentration and 37° C. in an incubator for one night. Thereafter, the HOP alkali metal salt fabricated in each Example was added to the culture medium so that the concentration of the HOP alkali metal salt became 4.9 mg/L and 19.5 mg/L. Further the cultivation was continued further for 2 days, and thereafter, the culture medium was removed from the wells; the well interiors were washed; and the number of the cells in the wells were measured by using a Cell Counting Kit 8 manufactured by Dojindo Laboratories. There are shown in the following Table the results in the case where the number of the cells when no HOP alkali metal salt was added to the culture medium was taken to be 100.
On the technique in general: Tetrazolium assays rely on reduction of a dye to a coloured formazan, in cell work by metabolically active cells.

A short description of the next data set: physchem. The note with it: 30 °C, water, thermodynamic from solid.
The nature of data set [3]: Chemical stability: color change on mixing with ascorbic acid aqueous solution. Type of data set: physicochemical. The note with it: 10 mg sample, 200 μl of 10 mass % ascorbic acid aqueous solution. As for the experimental part: [Chemical Stability] The HOP disodium fabricated in Example 1 and pyrroloquinoline quinone disodium were tested. 10 mg of the each sample was put in a test tube, and 200 μl of a 10 mass % ascorbic acid aqueous solution was mixed.

Data set [4] in a line: Measurement of the solubility (30° C.) of a HOP alkali metal salt to water. The note with it: 1 hour or more, absorbance at 360 nm.
Procedure: (§1) Water in such an amount that the HOP alkali metal salt fabricated in each Example remained undissolved was added to 100 mg of the HOP alkali metal salt. The resultant solution was allowed to stand still at 30° C. for 1 hour or more. Then, the solution was centrifugally separated to thereby separate a supernatant liquid and the HOP alkali metal salt remaining undissolved, and thereafter, the supernatant was diluted and the absorbance at 360 nm was measured. The solubility was calculated from the obtained absorbance.

Procedure for physchem: as §1

In the case of `CC(=O)CC1(O)C(=O)c2cc(C(=O)[O-])[nH]c2-c2c(C(=O)[O-])cc(C(=O)[O-])nc21.[Li+].[Li+].[Li+]` (racemic) [HOP trilithium], the “Cold Storage (4° C.): visual change” value in data set [1] is “no change”.

Regarding `CC(=O)CC1(O)C(=O)c2cc(C(=O)[O-])[nH]c2-c2c(C(=O)[O-])cc(C(=O)[O-])nc21.[Na+].[Na+].[Na+]` (racemic) [HOP trisodium], in data set [1], the “Cold Storage (4° C.): visual change” value is reported as “no change” and the “Room-Temperature Storage (23° C.): visual change” value is given as “change to brown”. In addition, in data set [2] (4.9 mg/L), the “number of the cells (no addition taken to be 100)” value came to 128. Besides, the “number of the cells (no addition taken to be 100)” value in data set [2] (19.5 mg/L) stood at 121.

For the compound `CC(=O)CC1(O)C(=O)c2cc(C(=O)O)[nH]c2-c2c(C(=O)O)cc(C(=O)O)nc21` (centres unmarked) [HOP free form, 5-Hydroxy-4-oxo-5-(2-oxopropyl)-4,5-dihydro-1H-pyrrolo[2,3-f]quinoline-2,7,9-tricarboxylic acid, reference compound], the “Cold Storage (4° C.): visual change” value in data set [1] is “no change”. Moreover, the figures for the “number of the cells (no addition taken to be 100)” value in data set [2] (4.9 mg/L) and in data set [2] (19.5 mg/L) were 95 and 103, respectively. Besides, the solubility in “physchem” was 2.9 mM (≈ 1130 µg/mL).

For `CC(=O)CC1(O)C(=O)c2cc(C(=O)[O-])[nH]c2-c2c(C(=O)[O-])cc(C(=O)[O-])nc21.[K+].[K+].[K+]` (centres unmarked) [HOP tripotassium], in data set [1], the “Cold Storage (4° C.): visual change” value is given as “no change”.

With `O=C(O)c1cc(C(=O)O)c2c(n1)C(=O)C(=O)c1cc(C(=O)O)[nH]c1-2.[Na].[Na]` [PQQ disodium, pyrroloquinoline quinone disodium, reference compound], the “color change with ascorbic acid” value in data set [3] was “changed in the color to black”. Also, the solubility in the data set “physchem” was 7.5 mM.

As to `O=C(O)c1cc(C(=O)O)c2c(n1)C(=O)C(=O)c1cc(C(=O)O)[nH]c1-2` [PQQ free form, pyrroloquinoline quinone], the solubility in the data set “physchem” came out at 1 mM (≈ 330 µg/mL).

Regarding `O=C(O)c1cc(C(=O)O)c2c(n1)C(=O)C(=O)c1cc(C(=O)O)[nH]c1-2` [PQQ trisodium, reference compound], the “Saturated Solubility” value in data set [4] turned out to be 35 mM.

For the compound HOP 2.5 sodium, in data set [1], the “Cold Storage (4° C.): visual change” value was “no change” and the “Room-Temperature Storage (23° C.): visual change” value was “no change”.

Turning to HOP 2.9 sodium, in data set [1], the “Cold Storage (4° C.): visual change” value is on record as “no change” and the “Room-Temperature Storage (23° C.): visual change” value is given as “no change”.

For the compound HOP dilithium, in data set [1], the “Cold Storage (4° C.): visual change” value is given as “no change” and the “Room-Temperature Storage (23° C.): visual change” value is “no change”.

Take HOP dipotassium: in data set [1], the “Cold Storage (4° C.): visual change” value is listed as “no change” and the “Room-Temperature Storage (23° C.): visual change” value is recorded as “no change”.

For the compound HOP disodium, in data set [1], the “Cold Storage (4° C.): visual change” value is “no change” and the “Room-Temperature Storage (23° C.): visual change” value is “no change”. Moreover, the “number of the cells (no addition taken to be 100)” value in data set [2] (4.9 mg/L) is given as 116. For the same compound, the “number of the cells (no addition taken to be 100)” value in data set [2] (19.5 mg/L) was found to be 130. Also, the “color change with ascorbic acid” value in data set [3] is listed as “no large change in the color”. Moreover, in data set [4], the “Saturated Solubility” value stood at 290 mM.

Take “HOP disodium hydrogen carbonate cocrystal”: in data set [1], the “Cold Storage (4° C.): visual change” value was “no change” and the “Room-Temperature Storage (23° C.): visual change” value is “no change”.

With “HOP trisodium hydrogen carbonate cocrystal”, in data set [1], the “Cold Storage (4° C.): visual change” value is “no change” and the “Room-Temperature Storage (23° C.): visual change” value is given as “no change”.
